From patent US20230065740A1, “CYCLIN-DEPENDENT KINASE INHIBITORS” (SPV THERAPEUTICS INC., priority 2018, published 2023)

How the values were obtained:
CDK2-CYCLINA = target: T1, CDK2-CYCLINA (Homo sapiens, UniProt P24941); assay: Microfluidic LabChip kinase inhibition assay, CDK2-CyclinA; type: biochemical; details: 50 μM ATP
T1 construct: purchased Millipore

CDK9-CYCLINT1 = target: T2, CDK9-CYCLINT1 (Homo sapiens, UniProt P50750); assay: Microfluidic LabChip kinase inhibition assay, CDK9-CyclinT1; type: biochemical; details: Table 3a; 10 μM ATP; read-out: CDK9 CyclinT1 IC50
T2 construct: purchased Carna
T2 sequence (P50750 whole entry): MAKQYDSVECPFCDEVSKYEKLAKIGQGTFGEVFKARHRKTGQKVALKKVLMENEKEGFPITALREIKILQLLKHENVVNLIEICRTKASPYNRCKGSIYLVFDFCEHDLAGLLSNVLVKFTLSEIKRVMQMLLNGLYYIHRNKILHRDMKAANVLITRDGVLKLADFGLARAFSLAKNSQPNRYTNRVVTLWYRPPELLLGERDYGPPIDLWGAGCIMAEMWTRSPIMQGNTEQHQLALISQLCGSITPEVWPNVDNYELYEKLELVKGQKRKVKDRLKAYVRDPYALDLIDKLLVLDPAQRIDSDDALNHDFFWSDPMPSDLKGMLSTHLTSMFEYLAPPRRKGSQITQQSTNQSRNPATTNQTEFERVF
T2 sequence (O60563 whole entry partner): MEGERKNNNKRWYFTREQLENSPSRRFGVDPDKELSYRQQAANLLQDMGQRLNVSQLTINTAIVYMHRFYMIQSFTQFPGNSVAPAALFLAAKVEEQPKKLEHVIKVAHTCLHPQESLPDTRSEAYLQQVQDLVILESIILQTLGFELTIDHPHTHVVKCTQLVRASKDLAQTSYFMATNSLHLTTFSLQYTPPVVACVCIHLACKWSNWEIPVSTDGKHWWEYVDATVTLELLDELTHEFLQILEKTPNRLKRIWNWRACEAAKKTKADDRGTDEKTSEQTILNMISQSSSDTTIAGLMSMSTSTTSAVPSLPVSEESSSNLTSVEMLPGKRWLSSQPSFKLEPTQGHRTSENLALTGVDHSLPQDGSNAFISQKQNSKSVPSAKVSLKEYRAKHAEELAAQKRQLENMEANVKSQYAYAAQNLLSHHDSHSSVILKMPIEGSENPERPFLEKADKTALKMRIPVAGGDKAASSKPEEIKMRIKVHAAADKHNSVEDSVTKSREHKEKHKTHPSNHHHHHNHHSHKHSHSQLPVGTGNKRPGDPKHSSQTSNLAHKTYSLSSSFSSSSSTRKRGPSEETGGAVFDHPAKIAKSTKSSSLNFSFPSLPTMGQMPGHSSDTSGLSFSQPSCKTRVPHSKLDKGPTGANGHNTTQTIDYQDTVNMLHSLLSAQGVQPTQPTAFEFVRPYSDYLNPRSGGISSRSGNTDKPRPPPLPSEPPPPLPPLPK

CDK1/B = CDK1/B (Homo sapiens, UniProt P06493); assay: Additional inhibition assay, CDK1/B; type: biochemical
Sequence of CDK1/B (P06493 whole entry): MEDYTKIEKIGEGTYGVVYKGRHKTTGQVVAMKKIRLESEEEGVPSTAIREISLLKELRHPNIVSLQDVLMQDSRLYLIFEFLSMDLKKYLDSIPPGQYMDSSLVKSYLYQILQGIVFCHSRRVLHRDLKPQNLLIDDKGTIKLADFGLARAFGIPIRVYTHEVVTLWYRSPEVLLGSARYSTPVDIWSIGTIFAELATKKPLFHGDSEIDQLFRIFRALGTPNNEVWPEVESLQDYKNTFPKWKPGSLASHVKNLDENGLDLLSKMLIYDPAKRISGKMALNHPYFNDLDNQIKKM
Sequence of CDK1/B (P14635 whole entry partner): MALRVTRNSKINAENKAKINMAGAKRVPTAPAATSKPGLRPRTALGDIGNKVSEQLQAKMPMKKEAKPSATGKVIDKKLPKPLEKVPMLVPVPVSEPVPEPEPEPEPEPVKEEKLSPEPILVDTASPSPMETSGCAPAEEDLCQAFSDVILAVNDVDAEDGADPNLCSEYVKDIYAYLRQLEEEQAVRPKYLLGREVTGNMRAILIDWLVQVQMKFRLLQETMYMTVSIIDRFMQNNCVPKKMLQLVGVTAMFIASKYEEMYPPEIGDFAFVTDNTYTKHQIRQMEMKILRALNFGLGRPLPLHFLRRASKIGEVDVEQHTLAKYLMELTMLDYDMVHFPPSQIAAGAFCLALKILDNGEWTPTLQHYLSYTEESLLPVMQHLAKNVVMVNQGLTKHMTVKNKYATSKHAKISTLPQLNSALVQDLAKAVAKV

CDK7 CyclinH = CDK7 CyclinH (Homo sapiens, UniProt P50613); assay: Additional inhibition assay, CDK7 CyclinH; type: biochemical
Sequence of CDK7 CyclinH (P50613 whole entry): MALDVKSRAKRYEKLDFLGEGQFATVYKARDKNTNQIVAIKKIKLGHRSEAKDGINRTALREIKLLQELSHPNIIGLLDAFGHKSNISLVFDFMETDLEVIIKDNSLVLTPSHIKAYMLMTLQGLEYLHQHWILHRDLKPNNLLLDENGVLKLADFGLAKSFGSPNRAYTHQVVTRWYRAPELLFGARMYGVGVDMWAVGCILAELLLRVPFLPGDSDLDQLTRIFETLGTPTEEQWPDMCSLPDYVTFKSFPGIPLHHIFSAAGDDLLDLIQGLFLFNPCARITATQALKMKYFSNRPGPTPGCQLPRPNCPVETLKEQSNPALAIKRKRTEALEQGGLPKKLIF
Sequence of CDK7 CyclinH (P51946 whole entry partner): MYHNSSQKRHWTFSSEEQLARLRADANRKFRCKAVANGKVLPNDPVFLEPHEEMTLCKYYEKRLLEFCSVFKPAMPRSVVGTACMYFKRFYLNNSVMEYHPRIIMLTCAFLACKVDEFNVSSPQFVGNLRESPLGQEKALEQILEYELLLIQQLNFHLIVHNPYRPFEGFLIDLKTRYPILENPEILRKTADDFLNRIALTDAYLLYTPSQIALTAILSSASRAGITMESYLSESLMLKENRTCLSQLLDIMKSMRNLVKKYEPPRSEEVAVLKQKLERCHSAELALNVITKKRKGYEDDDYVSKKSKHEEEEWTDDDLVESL
Sequence of CDK7 CyclinH (P51948 whole entry partner): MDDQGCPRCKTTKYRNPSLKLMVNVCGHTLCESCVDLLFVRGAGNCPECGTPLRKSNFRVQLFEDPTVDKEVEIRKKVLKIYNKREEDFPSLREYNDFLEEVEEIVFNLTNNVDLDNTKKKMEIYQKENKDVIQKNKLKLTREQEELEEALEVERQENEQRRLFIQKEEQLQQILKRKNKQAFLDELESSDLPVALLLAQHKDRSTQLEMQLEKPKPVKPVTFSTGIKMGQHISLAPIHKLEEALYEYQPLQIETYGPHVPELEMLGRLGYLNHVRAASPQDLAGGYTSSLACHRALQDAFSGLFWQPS

CDK4-CYCLIND1 = CDK4-CYCLIND1 (Homo sapiens, UniProt P11802); assay: Microfluidic LabChip kinase inhibition assay, CDK4-CyclinD1; details: CDK4 CyclinD1 IC50 (μM), 200 μM ATP, second value in parentheses on the next line
Sequence of CDK4-CYCLIND1 (P11802 whole entry): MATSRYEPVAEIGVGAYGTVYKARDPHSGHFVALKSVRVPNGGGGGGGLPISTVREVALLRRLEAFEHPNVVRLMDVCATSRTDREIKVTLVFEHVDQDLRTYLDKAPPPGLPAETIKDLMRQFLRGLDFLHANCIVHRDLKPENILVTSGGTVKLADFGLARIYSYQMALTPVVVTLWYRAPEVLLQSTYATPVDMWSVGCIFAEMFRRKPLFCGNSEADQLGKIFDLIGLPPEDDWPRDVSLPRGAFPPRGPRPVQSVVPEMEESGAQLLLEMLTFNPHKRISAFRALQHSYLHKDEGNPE
Sequence of CDK4-CYCLIND1 (P24385 whole entry partner): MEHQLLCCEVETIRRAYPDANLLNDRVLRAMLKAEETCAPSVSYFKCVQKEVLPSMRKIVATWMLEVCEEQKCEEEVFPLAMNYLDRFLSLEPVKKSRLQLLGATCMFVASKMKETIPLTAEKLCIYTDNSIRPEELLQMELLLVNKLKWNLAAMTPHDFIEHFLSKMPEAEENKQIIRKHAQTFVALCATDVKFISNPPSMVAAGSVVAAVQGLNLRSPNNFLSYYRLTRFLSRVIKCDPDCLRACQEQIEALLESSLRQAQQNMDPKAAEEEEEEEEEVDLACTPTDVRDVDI
Experimental: Inhibition assays were performed using microfluidic LabChip 300 Drug Discovery System from Caliper Life Sciences. […] The assay has a total volume of 10 μL consisting of 5 μL of enzyme and buffer and 5 μL of substrate and buffer. The test compounds were diluted in 100% dimethylsulfoxide (DMSO) using 3-fold dilution steps. […] Compounds were tested in a single well for each dilution and the final concentration of DMSO was maintained at 1%.
The assay buffer contained 100 mM HEPES, pH 7.5, 0.01% Triton X-100, 0.1% bovine serum albumin (BSA), 5 mM MgCl2; 1 mM dithiothreitol (DTT), 10 μM sodium orthovanadate, and 10 μM β-glycerophosphate.
The assay was conducted by adding 5 μL of enzyme, adenosine triphosphate (ATP) and buffer to an assay plate. A 100 nL aliquot of the diluted compounds were added to the plate. The assay was initiated by the addition of 5 μL of phosphoenolpyruvate substrate (PEP) in buffer. […] The reaction was terminated by the addition of EDTA. The plates were analyzed using a Caliper LabChip 3000.

| Compound | IC50 (CDK2-CYCLINA; Table 3a) [µM] | IC50 (CDK2-CYCLINA; Table 3b) [µM] | IC50 (CDK9-CYCLINT1) [µM] | IC50 (CDK1/B; Table 3a) [µM] | IC50 (CDK1/B; Table 3b) [µM] | IC50 (CDK7 CyclinH; Table 3a) [µM] | IC50 (CDK7 CyclinH; Table 3b) [µM] | IC50 (CDK4-CYCLIND1; Table 3a) [µM] | IC50 (CDK4-CYCLIND1; Table 3b) [µM] |
| --- | --- | --- | --- | --- | --- | --- | --- | --- | --- |
| CC(C)N1CCN(c2ccc(Nc3ncc4c(n3)N(C3CCCC3)C3(CCNC3=O)C4)cc2F)CC1 (stereo not drawn) [Compound C118, 7′-cyclopentyl-2′-((3-fluoro-4-(4-isopropylpiperazin-1-yl)phenyl)amino)-5′,7′-dihydrospiro[pyrrolidine-3,6′-pyrrolo[2,3-d]pyrimidin]-2-one] | 4.9 | 4.9 | 0.016 | 3.82 | 3.82 | > 10 | > 10 | 0.0264 | 0.0264 |
| COc1cc(Nc2ncc3c(n2)N(C2CCCC2)C2(CCNC2=O)C3)ccc1N1CCN(C)CC1 (stereo not drawn) [Compound C123, 7′-cyclopentyl-2′-((3-methoxy-4-(4-methylpiperazin-1-yl)phenyl)amino)-5′,7′-dihydrospiro[pyrrolidine-3,6′-pyrrolo[2,3-d]pyrimidin]-2-one] | > 10 | > 10 | 0.292 | > 10 | > 10 | > 10 | > 10 | 0.955 | 0.955 |
| CN1CCN(c2ccc(Nc3ncc4c(n3)N(C3CCCC3)C3(CCNC3=O)C4)cn2)CC1 (stereo not drawn) [Compound C129, 7′-cyclopentyl-2′-((6-(4-methylpiperazin-1-yl)pyridin-3-yl)amino)-5′,7′-dihydrospiro[pyrrolidine-3,6′-pyrrolo[2,3-d]pyrimidin]-2-one] | > 10 | > 10 | 0.0628 | 8.52 | 8.52 | > 10 | > 10 | 0.103 | 0.103 |
| O=C1NCCC12Cc1cnc(Nc3ccc(N4CCC(N5CCOCC5)CC4)c(F)c3)nc1N2C1CCCC1 (stereo not drawn) [Compound C132, 7′-cyclopentyl-2′-((3-fluoro-4-(4-morpholinopiperidin-1-yl)phenyl)amino)-5′,7′-dihydrospiro[pyrrolidine-3,6′-pyrrolo[2,3-d]pyrimidin]-2-one] | 9.66 | 9.66 | 0.0402 | 6.93 | 6.93 | > 10 | > 10 | 0.0561 | 0.0561 |
| O=C1NCCC12Cc1cnc(Nc3ccc(N4CCC(N5CCOCC5)CC4)nc3)nc1N2C1CCCC1 (stereo not drawn) [Compound C133, 7′-cyclopentyl-2′-((6-(4-morpholinopiperidin-1-yl)pyridin-3-yl)amino)-5′,7′-dihydrospiro[pyrrolidine-3,6′-pyrrolo[2,3-d]pyrimidin]-2-one] | > 10 | > 10 | 0.125 | > 10 | > 10 | > 10 | > 10 | 0.202 | 0.202 |
| CN1CC2(C1)CN(c1ccc(Nc3ncc4c(n3)N(C3CCCC3)C3(CC(=O)NC3=O)C4)cc1F)C2 (stereo not drawn) [Compound C149, 7′-cyclopentyl-2′-((3-fluoro-4-(6-methyl-2,6-diazaspiro[3.3]heptan-2-yl)phenyl)amino)-5′,7′-dihydrospiro[pyrrolidine-3,6′-pyrrolo[2,3-d]pyrimidine]-2,5-dione] | > 10 | > 10 | 0.0852 | > 10 | > 10 | > 10 | > 10 | 0.593 | 0.593 |
| CC(C)N1CC2(CN(c3ccc(Nc4ncc5c(n4)N(C4CCCC4)C4(CC(=O)NC4=O)C5)cc3)C2)C1 (stereo not drawn) [Compound C150, 7′-cyclopentyl-2′-((4-(6-isopropyl-2,6-diazaspiro[3.3]heptan-2-yl)phenyl)amino)-5′,7′-dihydrospiro[pyrrolidine-3,6′-pyrrolo[2,3-d]pyrimidine]-2,5-dione] | > 10 | > 10 | 0.27 | > 10 | > 10 | > 10 | > 10 | 0.522 | 0.522 |
| CN1CCC(c2ccc(Nc3ncc4c(n3)N(C3CCCC3)C3(CCNC3=O)C4)cc2)CC1 (stereo not drawn) [Compound C164, 7′-cyclopentyl-2′-((4-(1-methylpiperidin-4-yl)phenyl)amino)-5′,7′-dihydrospiro[pyrrolidine-3,6′-pyrrolo[2,3-d]pyrimidin]-2-one] | > 10 | > 10 | 0.117 | > 10 | > 10 | > 10 | > 10 | 0.167 | 0.167 |
| O=C1NCCC12Cc1cnc(Nc3ccc(OCCN4CCOCC4)cc3)nc1N2C1CCCC1 (stereo not drawn) [Compound C165, 7′-cyclopentyl-2′-((4-(2-morpholinoethoxy)phenyl)amino)-5′,7′-dihydrospiro[pyrrolidine-3,6′-pyrrolo[2,3-d]pyrimidin]-2-one] | > 10 | > 10 | 0.0914 | > 10 | > 10 | > 10 | > 10 | 0.702 | 0.702 |
| O=C1NCCC12Cc1cnc(Nc3ccc(OCCN4CCCC4)nc3)nc1N2C1CCCC1 (stereo not drawn) [Compound C170, 7′-cyclopentyl-2′-((6-(2-(pyrrolidin-1-yl)ethoxy)pyridin-3-yl)amino)-5′,7′-dihydrospiro[pyrrolidine-3,6′-pyrrolo[2,3-d]pyrimidin]-2-one] | > 10 | > 10 | 0.0282 | > 10 | > 10 | > 10 | > 10 | 0.233 | 0.233 |
| CN(C)[C@@H]1CCN(c2ccc(Nc3ncc4c(n3)N(C3CCCC3)C3(CCNC3=O)C4)cc2F)C1 (stereo partly drawn) [Compound C176, 7′-cyclopentyl-2′-((4-((R)-3-(dimethylamino)pyrrolidin-1-yl)-3-fluorophenyl)amino)-5′,7′-dihydrospiro[pyrrolidine-3,6′-pyrrolo[2,3-d]pyrimidin]-2-one] | > 10 | > 10 | 0.027 | 7.58 | 7.58 | > 10 | > 10 | 0.142 | 0.142 |

Continued, values first:

| IC50 (CDK2-CYCLINA; Table 3a) [µM] | IC50 (CDK2-CYCLINA; Table 3b) [µM] | IC50 (CDK9-CYCLINT1) [µM] | IC50 (CDK1/B; Table 3a) [µM] | IC50 (CDK1/B; Table 3b) [µM] | IC50 (CDK7 CyclinH; Table 3a) [µM] | IC50 (CDK7 CyclinH; Table 3b) [µM] | IC50 (CDK4-CYCLIND1; Table 3a) [µM] | IC50 (CDK4-CYCLIND1; Table 3b) [µM] | Compound |
| --- | --- | --- | --- | --- | --- | --- | --- | --- | --- |
| > 10 | > 10 | 0.021 | 6.35 | 6.35 | > 10 | > 10 | 0.124 | 0.124 | CN(C)CCOc1ccc(Nc2ncc3c(n2)N(C2CCCC2)C2(CCNC2=O)C3)cc1 (stereo not drawn) [Compound C108, 7′-cyclopentyl-2′-((4-(2-(dimethylamino)ethoxy)phenyl)amino)-5′,7′-dihydrospiro[pyrrolidine-3,6′-pyrrolo[2,3-d]pyrimidin]-2-one] |
| > 10 | > 10 | 0.149 | 9.11 | 9.11 | > 10 | > 10 | 0.116 | 0.116 | CN1CCN(c2ccc(Nc3ncc4c(n3)N(C3CCCC3)C3(CCNC3=O)C4)cc2)CC1 (stereo not drawn) [Compound C115, 7′-cyclopentyl-2′-((4-(4-methylpiperazin-1-yl)phenyl)amino)-5′,7′-dihydrospiro[pyrrolidine-3,6′-pyrrolo[2,3-d]pyrimidin]-2-one] |
| > 10 | > 10 | 0.132 | > 10 | > 10 | > 10 | > 10 | 0.374 | 0.374 | Cc1cc(Nc2ncc3c(n2)N(C2CCCC2)C2(CCNC2=O)C3)ccc1N1CCN(C(C)C)CC1 (stereo not drawn) [Compound C121, 7′-cyclopentyl-2′-((4-(4-isopropylpiperazin-1-yl)-3-methylphenyl)amino)-5′,7′-dihydrospiro[pyrrolidine-3,6′-pyrrolo[2,3-d]pyrimidin]-2-one] |
| > 10 | > 10 | 0.298 | > 10 | > 10 | > 10 | > 10 | 0.273 | 0.273 | O=C1NCCC12Cc1cnc(Nc3ccc(N4CCC(N5CCOCC5)CC4)cc3)nc1N2C1CCCC1 (stereo not drawn) [Compound C131, 7′-cyclopentyl-2′-((4-(4-morpholinopiperidin-1-yl)phenyl)amino)-5′,7′-dihydrospiro[pyrrolidine-3,6′-pyrrolo[2,3-d]pyrimidin]-2-one] |
| > 10 | > 10 | 0.0231 | > 10 | > 10 | > 10 | > 10 | 1.31 | 1.31 | Cn1cc(-c2ccc(Nc3ncc4c(n3)N(C3CCCC3)C3(CCNC3=O)C4)cc2)cn1 (stereo not drawn) [Compound C168, 7′-cyclopentyl-2′-((4-(1-methyl-1H-pyrazol-4-yl)phenyl)amino)-5′,7′-dihydrospiro[pyrrolidine-3,6′-pyrrolo[2,3-d]pyrimidin]-2-one] |
| > 10 | > 10 | 0.0336 | 8.41 | 8.41 | > 10 | > 10 | 0.109 | 0.109 | CN(C)[C@H]1CCN(c2ccc(Nc3ncc4c(n3)N(C3CCCC3)C3(CCNC3=O)C4)cc2F)C1 (stereo partly drawn) [Compound C173, 7′-cyclopentyl-2′-((4-((S)-3-(dimethylamino)pyrrolidin-1-yl)-3-fluorophenyl)amino)-5′,7′-dihydrospiro[pyrrolidine-3,6′-pyrrolo[2,3-d]pyrimidin]-2-one] |
